Test results taken from patent US20150352107A1, “ALPHA7 NEURONAL NICOTINIC RECEPTOR LIGAND AND ANTIPSYCHOTIC COMPOSITIONS” (AbbVie Inc., priority 2005, published 2015).
“Also recorded” adds a separate entry of the source. Read-outs that look alike come from different tables or passages of the source.

Assays:
[1] = cited from earlier work; for Optimal Dose and/or Minimally Effective Dose / EPS risk: dose of augmented risk: clinical use
DBA/2J mice = experiment: Prepulse inhibition (PPI) of startle in DBA/2 mice; assay type: in vivo, mouse; details: for dose at which efficacy was observed in DBA2 mouse PPI: i.p., antipsychotic alone, FIG. 1
Excerpt: Dysfunctions of sensory gating and information processing have been putatively associated with clinical features such as perpetual aberrations, hallucinations and distraction and been considered as potential precursors of sensory overload, cognitive fragmentation and disorganization. Among the physiological measures, one approach has involved the startle reflex with the prepulse inhibition (PPI) paradigm. […] PPI refers to a reduction in the acoustic startle reflex to a loud noise when the loud noise is preceded by a weak auditory stimulus. At short lead intervals, this has the effect of markedly reducing or gating the amplitude of the startle response and increasing its latency. Disruption of PPI occurs with agonists of dopamine and serotonin, and with glutamate/N-methyl D aspartate (NMDA) receptor antagonists, or can be induced by genetic (e.g., DBA2 mouse strain) and experimental manipulations (e.g., rearing rats in isolation, neurotoxic lesions, or other methods). […] (Olivier B., et al., Psychopharmacology (2001) vol. 156:284-290; Ouagazzal A-M., Psychopharmacology (2001) vol. 156:273-283; Simosky J. K., Psychopharmacology (2003) vol. 165:386-396). To accomplish the study, the following materials and methods were used.
Male DBA/2J mice (Jackson Laboratories AX9 facility, Bar Harbor, Me., USA) at age 6-8 weeks old were used for all investigations.
Startle response and PPI were measured using startle chambers from Hamilton Kinder (Poway, Calif., USA). Each chamber contained a plexiglas rectangle with an adjustable ceiling housed in a ventilated, sound-attenuated cubicle. The ceiling was adjusted on an individual (animal by animal) basis to allow for adequate headroom but no rears or extensive locomotion. The chamber was placed over an anchor plate attached to a piezoelectric disk to transduce startle responses to a computer. A loudspeaker located in each chamber delivered the background noise (65 dB), and the acoustic stimuli. A constant white noise was maintained in the experimental room for the duration of the experiment by a white noise generator (Radioshack, USA). Each session was initiated with a 5-minute acclimation period followed by four successive 120 dB, 40 ms trials. These trials were not included in the main analysis, but are referred to as baseline responses. Animals were then presented with 5 different trial types: startle pulse (120 dB, 40), or prepulse stimulus of one of three sound levels (70, 75, or 80 dB) for 20 ms, followed 100 ms later by an acoustic startle (120 dB) for 40 ms. A total of 12 trials under each condition were delivered in a random sequence and all trials were separated by a variable inter-trial interval of 5-25 s. Finally, this sequence ended with the presentation of four 120 dB, 40 ms sound bursts (not included in the main analyses, but included in the baseline or habituation analyses). The animals were injected with the test compounds 30 minutes before the start of the trials. In the startle alone trials, the basic auditory startle, or startle response was measured, and in the prepulse plus startle trials, the levels of PPI was calculated as a percentage score for each acoustic prepulse trial type using (typically) the formula: […].
Data were first analyzed using a two-way repeated measures analysis of variance (ANOVA) with two independent factors. If there was a significant interaction of both factors, subsequent post hoc one-way ANOVAs were performed using each treatment combination as an independent group. All post hoc significance was determined using Fishers protected least significant difference test. (p<0.05 was regarded as significant).
Startle response and PPI were measured using startle chambers from Hamilton Kinder (Poway, Calif., USA). Each chamber contained a plexiglas rectangle with an adjustable ceiling housed in a ventilated, sound-attenuated cubicle. […]

Sprague Dawley rats = experiment: Catalepsy bar test in rats (EPS predictor)
Description: One of the adverse effects of antipsychotic medications is extrapyramidal movement disorder syndrome attributed to blockade of the dopamine D2 receptors. Extrapyramidal movement disorder can be predicted by the cataleptic response elicited by an antipsychotic in a rodent. To assess whether Compound 1 alone evoked cataleptic responses or interfered with the cataleptic effect of the antipsychotic, the following set of studies were conducted. The materials and methods used to accomplish the study follow.
Male Sprague Dawley rats (CRL: CD (SD), Charles River Laboratories, Omaha, Nebr.) weighing 300-325 g were used for the experiment.
Rats were handled and habituated to the testing room before starting. […] The degree of catalepsy was measured by gently placing both forepaws over a metal bar (1.1 cm. diameter suspended 8 cm. above the table top). The time in seconds until the rat took both paws off the bar was recorded, with a maximum cut-off of 300 seconds. […] Alternately, any catalepsy trial time that was greater than 15 seconds (up to 300 seconds) was recorded.
Rats were handled and habituated to the testing room before starting. […] The degree of catalepsy was measured by gently placing both forepaws over a metal bar (1.1 cm. diameter suspended 8 cm. above the table top). The time in seconds until the rat took both paws off the bar was recorded, with a maximum cut-off of 300 seconds. […]

Compound: O=C1CCc2ccc(OCCCCN3CCN(c4cccc(Cl)c4Cl)CC3)cc2N1 [Arpiprazole]
- Optimal Dose and/or Minimally Effective Dose [1]: 15 mg/day

Compound: CN1CCN(C2=Nc3cc(Cl)ccc3Nc3ccccc32)CC1 [Clozapine, 8-chloro-11-(4-methyl-1-piperazinyl)-5H-dibenzo[b,e][1,4]diazepine]
- Optimal Dose and/or Minimally Effective Dose [1]: 300 to 400 mg/day
- Dose of Increased Side Effect Risk ([1]; low risk for seizures): <300 mg/day
- Dose of Increased Side Effect Risk ([1]; moderate risk for seizures): 300 to 599 mg/day
- dose at which efficacy was observed in DBA2 mouse PPI (DBA/2J mice): 3 mg/kg

Compound: c1cc2cc(-c3ccc(O[C@H]4CN5CCC4CC5)nn3)ccc2[nH]1 [Compound 1]
- effect on PPI in combination with maximally efficacious haloperidol (DBA/2J mice; Compound 1 0.04-4.0 mg/kg i.p. 10 minutes prior to maximally efficacious dose of haloperidol, FIG. 5): significant potentiation of effects; also recorded: does not interfere with the efficacy of haloperidol
- effect on PPI in combination with sub efficacious risperidone (DBA/2J mice; Compound 1 (0.04 mg/kg) + risperidone 0.1 mg/kg, FIG. 2): a maximally efficacious response is achieved; also recorded: boosting the effect of a sub efficacious dose of risperidone
- effect on PPI in combination with sub efficacious haloperidol (DBA/2J mice; Compound 1 (0.04-4.0 mg/kg) + haloperidol 0.3 mg/kg, FIG. 4): more efficacious; also recorded: boosting the effect of a sub efficacious dose of haloperidol
- effect on PPI, alone (DBA/2J mice; Compound 1 alone at 0.04 mg/kg, FIG. 2): does not have an effect

Compound: c1ccc(-c2ccc(N3CC4CNCC4C3)nn2)cc1 (centres unmarked) [Compound 2, 2-(6-phenylpyridazin-3-yl)octahydropyrrolo[3,4-c]pyrrole]
- effect on risperidone-induced catalepsy (Sprague Dawley rats; Compound 2 4.0 mg/kg i.p. + risperidone 2.5 mg/kg i.p., FIG. 11): did not significantly alter cataleptic behavior of risperidone
- effect on PPI in combination with sub efficacious risperidone (DBA/2J mice; Compound 2 0.4-4.0 mg/kg + risperidone 0.1 mg/kg, FIG. 7): attained maximal efficacy; also recorded: potentiates the efficacy of risperidone
- effect on PPI, alone (DBA/2J mice; Compound 2 alone 0.04-4.0 mg/kg, FIG. 6): no effect

Compound: O=C(N[C@H]1CN2CCC1CC2)c1ccc(Cl)cc1.O=C(O)/C=C/C(=O)O [Compound 3, N-(3R)-1-azabicyclo[2,2,2]oct-3-yl-4-chlorobenzamide fumarate]
- effect on risperidone-induced catalepsy (Sprague Dawley rats; Compound 3 3.0 mg/kg i.p. + risperidone 2.5 mg/kg i.p., FIG. 12): did not significantly alter cataleptic behavior of risperidone
- effect on PPI in combination with sub efficacious risperidone (DBA/2J mice; Compound 3 1.0-10.0 mg/kg + risperidone 0.1 mg/kg, FIG. 9, fumarate): attained maximal efficacy; also recorded: boosting the effect of a sub efficacious dose of risperidone
- effect on PPI, alone (DBA/2J mice; Compound 3 alone 1.0-10.0 mg/kg, FIG. 8): no effect

Compound: O=C(CCCN1CCC(O)(c2ccc(Cl)cc2)CC1)c1ccc(F)cc1 [Haloperidol, 4-(4-[4-chlorophenyl]-4-hydroxy-1-piperidinyl)-1-(4-fluorophenyl)-1-butanone]
- Optimal Dose and/or Minimally Effective Dose [1]: 2 to 5 mg/day
- Dose of Increased Side Effect Risk ([1]; risk for EPS): ~3 mg
- dose at which efficacy was observed in DBA2 mouse PPI (DBA/2J mice): 3 mg/kg

Compound: Cc1cc2c(s1)Nc1ccccc1N=C2N1CCN(C)CC1 [Olanzapine, 2-methyl-4-(4-methyl-1-piperazinyl)-10H-thieno[2,3-b][1,5]benzodiazepine]
- EPS risk: dose of augmented risk [1]: risk >7.5 mg/kg/day
- Optimal Dose and/or Minimally Effective Dose [1]: 10 to 20 mg/day

Compound: Cc1nc2n(c(=O)c1CCN1CCC(c3noc4cc(F)ccc34)CC1)CCCC2 [Risperidone, 3-[2-[4-(6-fluoro-1,2-benzisoxazol-3-yl)-1-piperidinyl]ethyl]-6,7,8,9-tetrahydro-2-methyl-4H-pyrido[1,2-a]pyrimidin-4-one]
- Dose of Increased Side Effect Risk ([1]; EPS risk): ≧6 mg/day
- EPS risk: dose of augmented risk [1]: risk >6 mg/kg/day
- Optimal Dose and/or Minimally Effective Dose [1]: 4 to 6 mg/day

Compound: O=C1Cc2cc(CCN3CCN(c4nsc5ccccc45)CC3)c(Cl)cc2N1 [Ziprasidone, 5-[2-[4-(1,2-benzoisothiazol-3-yl)-1-piperazinyl]ethyl]-6-chloro-1,3-dihydro-2H-indol-2-one]
- Dose of Increased Side Effect Risk ([1]; EPS risk): >80 mg/day
- EPS risk: dose of augmented risk [1]: risk >80 mg/kg/day
- Optimal Dose and/or Minimally Effective Dose [1]: 120 mg/day
